{"source": "patent US6468476B1", "about": "“Methods for using-co-regulated genesets to enhance detection and classification of gene expression patterns” (Rosetta Inpharmatics, Inc., priority 1998, dated 2002)", "tested_on": "genes regulated by the Gcn4 transcription factor", "assay": "Transcript response (DNA microarray) to a titration series of FK506, genes of the Gcn4 geneset", "format": "cell-based, Saccharomyces cerevisiae", "protocol": "Yeast (Saccharomyces cerevisiae, Strain YPH499, see, Sikorski and Hieter, 1989, A system of shuttle vectors and yeast host strains designated for efficient manipulation of DNA in Saccharomyces cerevisiae, Genetics 122:19-27) cells were grown in YAPD at 30° C. to an OD600 of 1.0 (±0.2), and total RNA prepared by breaking cells in phenol/chloroform and 0.1% SDS by standard procedures (Ausubel et al., 1995, Current Protocols in Molecular Biology, Greene Publishing and Wiley-Interscience, New York, Ch. 13). Poly(A)^+ RNA was selected by affinity chromatography on oligo-dT cellulose (New England Biolabs) essentially as described in Sambrook et al. (Molecular Cloning—A Laboratory Manual (2nd Ed.), Vol. 1, Cold Spring Harbor Laboratory, Cold Spring Harbor, N.Y., 1989). First strand cDNA synthesis was carried out with 2 μg poly(A)^+ RNA and SuperScript™ II reverse transcriptase (Gibco-BRL) according to the manufacturer's instructions with the following modifications. Deoxyribonucleotides were present at the following concentrations: dA, dG, and dC at 500 μM each, dT at 100 μM and either Cy3-dUTP or Cy5-dUTP (Amersham) at 100 μM. cDNA synthesis reactions were carried out at 42-44° C. for 90 minutes, after which RNA was degraded by the addition of 2 units of RNAse H, and the cDNA products were purified by two successive rounds of centrifugation dialysis using MICROCON-30 microconcentrators (Amicon) according to the manufacturer's recommendations.\nDouble-stranded DNA polynucleotides corresponding in sequence to each ORF in the S. cerevisiae genome encoding a polypeptide greater than 99 amino acids (based on the published yeast genomic sequence, e.g., Goffeau et al., 1996, Science 274:546-567) are made by polymerase chain reaction (PCR) amplification of yeast genomic DNA. Two PCR primers are chosen internal to each of the ORFs according to two criteria: (i) the amplified fragments are 300-800 bp and (ii) none of the fragments have a section of more than 10 consecutive nucleotides of sequence in common. Computer programs are used to aid in the design of the PCR primers. Amplification is carried out in 96 well microtitre plates. The resulting DNA fragments are printed onto glass microscope slides using the method of Shalon et al., 1996, Genome Research 6:639-645.\nFluorescently-labeled cDNAs (2-6 μg) are resuspended in 4×SSC plus 1 μg/μl tRNA as carrier and filtered using […] filters (Millipore, Bedford, Mass.). SDS is added to 0.3%, prior to heating to 100° C. for 2 minutes. Probes are cooled and immediately hybridized to the microarrays produced as described in Example 6.2, for 4 hours at 65° C. Non-hybridized probe is removed by washing in 1×SSC plus 0.1% SDS at ambient temperature for 1-2 minutes. Microarrays are scanned with a fluorescence laser-scanning device as previously described (Schena et al., 1995, Science 270:467-470; Schena et al., 1995, Proc. Natl. Acad. Sci. USA 93:[…]) and the results (including the positions of perturbations) are recorded.\nGeneset number 3 in the clustering analysis result of FIG. 6 involves genes regulated by the Gcn4 transcription factor. This was verified via the literature and via multiple sequence alignment analysis of the regulatory regions 5′ to the individual genes (Stormo and Hartzell, 1989, Identifying protein binding sites from unaligned DNA fragments, Proc Natl Acad Sci 86:1183-1187; Hertz and Stormo, 1995, Identification of consensus patterns in unaligned DNA and protein sequences: a large-deviation statistical basis for penalizing gaps, Proc of 3rd Intl Conf on Bioinformatics and Genome Research, Lim and Cantor, eds., World Scientific Publishing Co., Ltd. Singapore, pp. 201-216). […] These 20 were used to define a geneset. Response profiles to a titration series of the drug FK506, which is known to hit this pathway at higher concentrations, were projected onto this geneset. […]", "data": [{"smiles": "C=CC[C@@H]1/C=C(\\C)C[C@H](C)C[C@H](OC)[C@H]2O[C@@](O)(C(=O)C(=O)N3CCCC[C@H]3C(=O)O[C@H](/C(C)=C/[C@@H]3CC[C@@H](O)[C@H](OC)C3)[C@H](C)[C@@H](O)CC1=O)[C@H](C)C[C@@H]2OC", "note": "[FK506]", "values": [{"measurement": "Geneset Average response (projected response of the 20-gene Gcn4 geneset)", "setting": "FK506 0.1 μg/ml", "result": "0.1728 standard deviations of Log10(Expression Ratio)"}, {"measurement": "Response of gene ARG1", "setting": "FK506 0.1 μg/ml", "result": "0.2083 standard deviations of Log10(Expression Ratio)"}, {"measurement": "Response of gene ARG4", "setting": "FK506 0.1 μg/ml", "result": "0.3585 standard deviations of Log10(Expression Ratio)"}, {"measurement": "Response of gene ARG5,6", "setting": "FK506 0.1 μg/ml", "result": "0.1162 standard deviations of Log10(Expression Ratio)"}, {"measurement": "Response of gene ECM13", "setting": "FK506 0.1 μg/ml", "result": "0.1269 standard deviations of Log10(Expression Ratio)"}, {"measurement": "Response of gene HIS3", "setting": "FK506 0.1 μg/ml", "result": "−0.3719 standard deviations of Log10(Expression Ratio)"}, {"measurement": "Response of gene HIS5", "setting": "FK506 0.1 μg/ml", "result": "0.0292 standard deviations of Log10(Expression Ratio)"}, {"measurement": "Response of gene MET16", "setting": "FK506 0.1 μg/ml", "result": "0.0225 standard deviations of Log10(Expression Ratio)"}, {"measurement": "Response of gene NCE3", "setting": "FK506 0.1 μg/ml", "result": "0.0371 standard deviations of Log10(Expression Ratio)"}, {"measurement": "Response of gene PCL5", "setting": "FK506 0.1 μg/ml", "result": "0.1418 standard deviations of Log10(Expression Ratio)"}, {"measurement": "Response of gene SNO1", "setting": "FK506 0.1 μg/ml", "result": "−0.2899 standard deviations of Log10(Expression Ratio)"}, {"measurement": "Response of gene SNZ1", "setting": "FK506 0.1 μg/ml", "result": "−0.7223 standard deviations of Log10(Expression Ratio)"}, {"measurement": "Response of gene SSU1", "setting": "FK506 0.1 μg/ml", "result": "0.6257 standard deviations of Log10(Expression Ratio)"}, {"measurement": "Response of gene YBR047W", "setting": "FK506 0.1 μg/ml", "result": "0.0781 standard deviations of Log10(Expression Ratio)"}, {"measurement": "Response of gene YER024W", "setting": "FK506 0.1 μg/ml", "result": "0.1985 standard deviations of Log10(Expression Ratio)"}, {"measurement": "Response of gene YGL117W", "setting": "FK506 0.1 μg/ml", "result": "0.6309 standard deviations of Log10(Expression Ratio)"}, {"measurement": "Response of gene YGL184C", "setting": "FK506 0.1 μg/ml", "result": "0.0654 standard deviations of Log10(Expression Ratio)"}, {"measurement": "Response of gene YHR029C", "setting": "FK506 0.1 μg/ml", "result": "−0.031 standard deviations of Log10(Expression Ratio)"}, {"measurement": "Response of gene YMR195W", "setting": "FK506 0.1 μg/ml", "result": "0.7615 standard deviations of Log10(Expression Ratio)"}, {"measurement": "Geneset Average response (projected response of the 20-gene Gcn4 geneset)", "setting": "FK506 0.31 μg/ml", "result": "0.6753 standard deviations of Log10(Expression Ratio)"}, {"measurement": "Response of gene ARG1", "setting": "FK506 0.31 μg/ml", "result": "0.3436 standard deviations of Log10(Expression Ratio)"}, {"measurement": "Response of gene ARG4", "setting": "FK506 0.31 μg/ml", "result": "0.3508 standard deviations of Log10(Expression Ratio)"}, {"measurement": "Response of gene ARG5,6", "setting": "FK506 0.31 μg/ml", "result": "0.2722 standard deviations of Log10(Expression Ratio)"}, {"measurement": "Response of gene ARO3", "setting": "FK506 0.31 μg/ml", "result": "−0.1371 standard deviations of Log10(Expression Ratio)"}, {"measurement": "Response of gene ECM13", "setting": "FK506 0.31 μg/ml", "result": "0.2197 standard deviations of Log10(Expression Ratio)"}, {"measurement": "Response of gene HIS3", "setting": "FK506 0.31 μg/ml", "result": "0.1282 standard deviations of Log10(Expression Ratio)"}, {"measurement": "Response of gene HIS5", "setting": "FK506 0.31 μg/ml", "result": "0.2175 standard deviations of Log10(Expression Ratio)"}, {"measurement": "Response of gene MET16", "setting": "FK506 0.31 μg/ml", "result": "−0.6269 standard deviations of Log10(Expression Ratio)"}, {"measurement": "Response of gene NCE3", "setting": "FK506 0.31 μg/ml", "result": "0.1668 standard deviations of Log10(Expression Ratio)"}, {"measurement": "Response of gene PCL5", "setting": "FK506 0.31 μg/ml", "result": "0.2767 standard deviations of Log10(Expression Ratio)"}, {"measurement": "Response of gene SNO1", "setting": "FK506 0.31 μg/ml", "result": "0.0244 standard deviations of Log10(Expression Ratio)"}, {"measurement": "Response of gene SNZ1", "setting": "FK506 0.31 μg/ml", "result": "0.0244 standard deviations of Log10(Expression Ratio)"}, {"measurement": "Response of gene SSU1", "setting": "FK506 0.31 μg/ml", "result": "0.6655 standard deviations of Log10(Expression Ratio)"}, {"measurement": "Response of gene YBR047W", "setting": "FK506 0.31 μg/ml", "result": "0.1553 standard deviations of Log10(Expression Ratio)"}, {"measurement": "Response of gene YER024W", "setting": "FK506 0.31 μg/ml", "result": "−0.0419 standard deviations of Log10(Expression Ratio)"}, {"measurement": "Response of gene YGL117W", "setting": "FK506 0.31 μg/ml", "result": "0.6768 standard deviations of Log10(Expression Ratio)"}, {"measurement": "Response of gene YGL184C", "setting": "FK506 0.31 μg/ml", "result": "−0.0207 standard deviations of Log10(Expression Ratio)"}, {"measurement": "Response of gene YHR029C", "setting": "FK506 0.31 μg/ml", "result": "0.2438 standard deviations of Log10(Expression Ratio)"}, {"measurement": "Response of gene YMR195W", "setting": "FK506 0.31 μg/ml", "result": "0.3323 standard deviations of Log10(Expression Ratio)"}, {"measurement": "'Geneset' response, significance", "setting": "FK506 1.6 μg/ml", "result": "> 3", "unit": "sigrna"}, {"measurement": "Geneset Average response (projected response of the 20-gene Gcn4 geneset)", "setting": "FK506 1.6 μg/ml", "result": "3.3045 standard deviations of Log10(Expression Ratio)"}, {"measurement": "Response of gene ARG1", "setting": "FK506 1.6 μg/ml", "result": "3.1765 standard deviations of Log10(Expression Ratio)"}, {"measurement": "Response of gene ARG4", "setting": "FK506 1.6 μg/ml", "result": "1.6674 standard deviations of Log10(Expression Ratio)"}, {"measurement": "Response of gene ARG5,6", "setting": "FK506 1.6 μg/ml", "result": "1.1844 standard deviations of Log10(Expression Ratio)"}, {"measurement": "Response of gene ARO3", "setting": "FK506 1.6 μg/ml", "result": "0.2684 standard deviations of Log10(Expression Ratio)"}, {"measurement": "Response of gene CPA2", "setting": "FK506 1.6 μg/ml", "result": "1.2429 standard deviations of Log10(Expression Ratio)"}, {"measurement": "Response of gene ECM13", "setting": "FK506 1.6 μg/ml", "result": "0.5226 standard deviations of Log10(Expression Ratio)"}, {"measurement": "Response of gene HIS3", "setting": "FK506 1.6 μg/ml", "result": "0.71 standard deviations of Log10(Expression Ratio)"}, {"measurement": "Response of gene HIS5", "setting": "FK506 1.6 μg/ml", "result": "0.9802 standard deviations of Log10(Expression Ratio)"}, {"measurement": "Response of gene MET16", "setting": "FK506 1.6 μg/ml", "result": "−0.1885 standard deviations of Log10(Expression Ratio)"}, {"measurement": "Response of gene NCE3", "setting": "FK506 1.6 μg/ml", "result": "1.2896 standard deviations of Log10(Expression Ratio)"}, {"measurement": "Response of gene PCL5", "setting": "FK506 1.6 μg/ml", "result": "0.4127 standard deviations of Log10(Expression Ratio)"}, {"measurement": "Response of gene SNO1", "setting": "FK506 1.6 μg/ml", "result": "−0.4772 standard deviations of Log10(Expression Ratio)"}, {"measurement": "Response of gene SNZ1", "setting": "FK506 1.6 μg/ml", "result": "−0.4772 standard deviations of Log10(Expression Ratio)"}, {"measurement": "Response of gene SSU1", "setting": "FK506 1.6 μg/ml", "result": "0.2883 standard deviations of Log10(Expression Ratio)"}, {"measurement": "Response of gene YBR047W", "setting": "FK506 1.6 μg/ml", "result": "0.2806 standard deviations of Log10(Expression Ratio)"}, {"measurement": "Response of gene YER024W", "setting": "FK506 1.6 μg/ml", "result": "0.4868 standard deviations of Log10(Expression Ratio)"}, {"measurement": "Response of gene YGL117W", "setting": "FK506 1.6 μg/ml", "result": "1.6276 standard deviations of Log10(Expression Ratio)"}, {"measurement": "Response of gene YGL184C", "setting": "FK506 1.6 μg/ml", "result": "−0.0731 standard deviations of Log10(Expression Ratio)"}, {"measurement": "Response of gene YHR029C", "setting": "FK506 1.6 μg/ml", "result": "0.4421 standard deviations of Log10(Expression Ratio)"}, {"measurement": "Response of gene YMR195W", "setting": "FK506 1.6 μg/ml", "result": "1.6021 standard deviations of Log10(Expression Ratio)"}]}]}
